Results published in patent US11691961B2, “Molecule having pesticidal utility, and compositions, and processes, related thereto” (CORTEVA AGRISCIENCE LLC, priority 2018, dated 2023).

Assays:
[1] = test system: Green Peach Aphid (Myzus persicae, MYZUPE); test: Bioassay 1: Green Peach Aphid foliar spray on cabbage seedlings; type: in vivo; details: for Myzus persicae Mean LC50 PPM: infested cabbage seedlings sprayed until runoff, live aphids counted three days after treatment, Abbott-corrected percent control, mean of replicates; for Myzus persicae % (percent increase in the Mean LC50 required): relative to F1: ((LC50 - LC50 of F1)/LC50 of F1)*100
Experimental: (§1) F1, CE1, CE2, CE3, and CE4 (2 mg each) were each dissolved in 2 mL of acetone/methanol (1:1) solvent, forming stock solutions of 1000 ppm for each test molecule. The stock solutions were diluted 5× with 0.025% Tween® 20 in water to obtain test solutions at 200 ppm for each test molecule. Subsequent 4× dilutions, in water containing 0.025% Tween® 20 and 10% acetone/methanol (1:1), were used to generate the desired concentrations for dose responses. A minimum of 5 concentrations of each test molecule were used for each assay.
Bioassay 1: Green Peach Aphid (Myzus persicae, MYZUPE) (“GPA”).
Test solutions of Formula One and the Comparative Examples, prepared as described above, were tested against GPA using the following procedure.
Cabbage seedlings grown in 3-inch pots, with 2-3 small (3-5 cm) true leaves, were used as test substrate. The seedlings were infested with 20-50 GPA (wingless adult and nymph stages) one day prior to chemical application. Four pots with individual seedlings were used for each treatment. A hand-held aspirator-type sprayer was used for spraying a solution to both sides of […] leaves until runoff. Reference plants (solvent check) were sprayed with the diluent only (0.025% Tween® 20 and 10% acetone/methanol (1:1) in water). Treated plants were held in a holding room for three days at approximately 25° C. and ambient relative humidity (RH) prior to grading. Evaluation was conducted by counting the number of live aphids per plant under a microscope three days after treatment. Percent control was measured using Abbott's correction formula (W. S. Abbott, “A Method of Computing the Effectiveness of an Insecticide” J. Econ. Entomol. 18 (1925), pp. 265-267) as follows:
(§2) [formula] where X=No. of live aphids on solvent check plants and Y=No. of live aphids on treated plants. Bioassay 2: Sweet potato Whitefly (Bemisia tabaci, BEMITA) (“SPW”).

[2] = test system: Sweet potato Whitefly (Bemisia tabaci, BEMITA); test: Bioassay 2: Sweet potato Whitefly foliar spray on cotton seedlings; type: in vivo; details: for Bemisia tabaci Mean LC50 PPM: cotton seedlings sprayed at crawler emergence, 2-3 instar nymphs counted 7-9 days after treatment, Abbott-corrected percent control, mean of replicates; for Bemisia tabaci % (percent increase in the Mean LC50 required): relative to F1: ((LC50 - LC50 of F1)/LC50 of F1)*100
Experimental: as §1, §2
Test solutions of Formula One and the Comparative Examples, prepared as described above, were tested against SPW using the following procedure.
Cotton seedlings grown in 3-inch pots, pruned so that only one true leaf remained, were used as test substrate. Adult B. tabaci were allowed to colonize these plants and lay eggs for 24 hours after which all adults were removed from the plants using compressed air. Plants were monitored for egg development and, when crawler emergence was underway (>25% emergence based on visual examination using a microscope), the plants were sprayed using the test solutions and methods described above for green peach aphids (GPA). Treated plants were held in a holding room at approximately 25° C. and ambient relative humidity (RH) prior to grading. Evaluation was conducted by counting the number of developed 2-3 instar nymphs per plant under a microscope 7-9 days after treatment. Percent control was measured using Abbott's correction formula (W. S. Abbott, “A Method of Computing the Effectiveness of an Insecticide” J. Econ. Entomol. 18 (1925), pp. 265-267) as follows:
[formula] where X=No. of live nymphs on solvent check plants and Y=No. of live nymphs on treated plants. Analysis of Bioassays

## CS(=O)(=O)CC(=O)Nc1cn(-c2cccnc2)nc1Cl [CE3, N-(3-chloro-1-(pyridin-3-yl)-1H-pyrazol-4-yl)-2-(methylsulfonyl)acetamide]
[1]
  Myzus persicae Mean LC50 PPM: 0.05 PPM
  Myzus persicae % (percent increase in the Mean LC50 required): −29%
[2]
  Bemisia tabaci Mean LC50 PPM: 25.35 PPM

## CN(C(=O)CS(C)(=O)=O)c1cn(-c2cccnc2)nc1Cl [CE2, N-(3-chloro-1-(pyridin-3-yl)-1H-pyrazol-4-yl)-N-methyl-2-(methylsulfonyl)acetamide]
[1]
  Myzus persicae Mean LC50 PPM: 0.52 PPM
[2]
  Bemisia tabaci Mean LC50 PPM: 21.01 PPM

## CC(C(=O)Nc1cn(-c2cccnc2)nc1Cl)S(C)(=O)=O (centres unmarked) [Molecule F1, N-(3-chloro-1-(pyridin-3-yl)-1H-pyrazol-4-yl)-2-(methylsulfonyl)propanamide]
[1]
  Myzus persicae Mean LC50 PPM: 0.07 PPM
[2]
  Bemisia tabaci Mean LC50 PPM: 4.87 PPM

## CC(C(=O)N(C)c1cn(-c2cccnc2)nc1Cl)S(C)(=O)=O (centres unmarked) [CE1, N-(3-chloro-1-(pyridin-3-yl)-1H-pyrazol-4-yl)-N-methyl-2-(methylsulfonyl)propanamide]
[1]
  Myzus persicae Mean LC50 PPM: 0.29 PPM
[2]
  Bemisia tabaci Mean LC50 PPM: 5.61 PPM
  Bemisia tabaci % (percent increase in the Mean LC50 required): 15%

## CC(C)(C(=O)Nc1cn(-c2cccnc2)nc1Cl)S(C)(=O)=O [CE4, N-(3-chloro-1-(pyridin-3-yl)-1H-pyrazol-4-yl)-2-methyl-2-(methylsulfonyl)propanamide]
[1]
  Myzus persicae Mean LC50 PPM: 2.17 PPM
  Myzus persicae % (percent increase in the Mean LC50 required): 3000%
[2]
  Bemisia tabaci Mean LC50 PPM: 9.72 PPM
  Bemisia tabaci % (percent increase in the Mean LC50 required): 100%
